Measured values as given in patent publication US11279733B2, “Peptide antibiotics” (priority 2017, dated 2022).
In brackets after ≈: the same amount, converted by molar mass. Starred links: 1 amine or outer side, 2 acyl side, 3 side chain; linkers in the order of their positions; H or OH if unused. Positions of bridges follow the written chain, without caps; N, C: chain ends. Non-standard residues stand in square brackets, D forms with d. Residues, ends and D or L forms follow the SMILES beside them. *: point of attachment. X10 = CCCCCCC[C@@H](O)CC(=O)N[C@H](CCN)C(=O)NN(CCN[*:2])C(=O)[*:1]; Decanoyl(3R-OH) = CCCCCCC[C@@H](O)CC(=O)*; X12 = O=C(c1ccn(-c2ccccc2)c(=O)c1)*; Decanoyl = CCCCCCCCCC(=O)*; Nonanoyl = CCCCCCCCC(=O)*; dDab = NCC[C@@H](N)C(=O)O; Heptanoyl = CCCCCCC(=O)*; dDap = NC[C@@H](N)C(=O)O; Dab = NCC[C@H](N)C(=O)O

Tests used:
in vitro = conditions: human
In short: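 Cells were seeded at 4000 per well and allowed to attach for 24 h at 37 °C, 5% CO2, then exposed to compounds for 24 h. Resazurin (5 μM) was added for 2 h at 37 °C and fluorescence read at 560/590 nm. CC50 was derived by curve fitting of dose-dependent growth inhibition.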

E. coli ATCC 25922 = conditions: ATCC 25922
In short: (§1)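 Mid-log cultures grown in Mueller Hinton broth at 37° C were tested by 2-fold broth microdilution at 5×10^5 CFU/mL final. Compounds were dissolved in water and tested over a final range of 32 to 0.015 μg/mL.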

[1] = system: K. pneumoniae ATCC BAA-2146, NDM-1 pos; conditions: ATCC BAA-2146
In short: as §1

[2] = system: S. aureus ATCC 25923, MSSA; conditions: ATCC 25923
In short: as §1

[3] = system: P. aeruginosa GN_105, PmxR; conditions: GN 105, PmxR
In short: as §1

[4] = system: P. aeruginosa GN_043, PmxR; conditions: for MIC, P. aeruginosa FADDI-PA070, PmxR: strain name as in Table 11
In short: as §1

[5] = system: K. pneumoniae ATCC 700603, MDR; conditions: ATCC 700603
In short: as §1

P. aeruginosa ATCC 27853 = conditions: ATCC 27853
In short: as §1

K. pneumoniae ATCC 13883 = conditions: ATCC 13883
In short: as §1

A. baumannii GN_093 PmxR = conditions: GN 093 PmxR
In short: as §1

A. baumannii ATCC 19606 = conditions: ATCC 19606
In short: as §1

[6] = system: K. pneumoniae GN_106, PmxR; conditions: GN 106, PmxR
In short: as §1

[7] = system: K. pneumoniae GN_102 PmxR; conditions: GN 102 PmxR
In short: as §1

| SMILES | CC50 at 24 h (in vitro) [µM] | MIC E. coli ATCC 25922 (E. coli ATCC 25922) [µg/mL] | MIC K. pneumoniae ATCC BAA-2146, NDM-1 pos [1] [µg/mL] | MIC S. aureus ATCC 25923, MSSA [2] [µg/mL] | MIC P. aeruginosa GN_105, PmxR [3] [µg/mL] | MIC P. aeruginosa GN_043, PmxR [4] [µg/mL] | MIC K. pneumoniae ATCC 700603, MDR [5] [µg/mL] | MIC P. aeruginosa ATCC 27853 (P. aeruginosa ATCC 27853) [µg/mL] | MIC K. pneumoniae ATCC 13883 (K. pneumoniae ATCC 13883) [µg/mL] | MIC A. baumannii GN_093 PmxR (A. baumannii GN_093 PmxR) [µg/mL] | MIC A. baumannii ATCC 19606 (A. baumannii ATCC 19606) [µg/mL] | MIC K. pneumoniae GN_106, PmxR [6] [µg/mL] | MIC K. pneumoniae GN_102 PmxR [7] [µg/mL] | MIC P. aeruginosa PA9704, PmxR [3] [µg/mL] | MIC, P. aeruginosa FADDI-PA070, PmxR [4] [µg/mL] | MIC A. baumannii Cl Ptyela 10073 4512:2, PmxR (A. baumannii GN_093 PmxR) [µg/mL] | MIC K. pneumoniae Cl 183-16357-20352, PmxR [6] [µg/mL] | MIC K. pneumoniae Cl Koprana 10065 0661:1 PmxR [7] [µg/mL] |
| --- | --- | --- | --- | --- | --- | --- | --- | --- | --- | --- | --- | --- | --- | --- | --- | --- | --- | --- |
| CC(C)C[C@@H]1NC(=O)[C@H](CCN)NC(=O)[C@H](CCN)NC(=O)[C@H](CC(C)C)NC(=O)[C@@H](Cc2ccccc2)NC(=O)[C@H](CCN)NC(=O)[C@@H](NC(=O)[C@@H](CN)NC(=O)c2ccn(-c3ccccc3)c(=O)c2)CCNC1=O [compound 9189, 4-(1-Ph-pyridinone)-D-Dap-cyc[L-Dab-L-Dab-D-Phe-L-Leu-L-Dab-L-Dab-L-Leu]] (X12-[dDap][Dab][Dab][dF]L[Dab][Dab]L; lactam 2-C) | > 300 | >32 | 32 (≈ 30.3 µM) | >32 | 16 (≈ 15.1 µM) | 4 (≈ 3.78 µM) | 32 (≈ 30.3 µM) | 4 (≈ 3.78 µM) | >32 | >32 | >32 | >32 | >32 |  |  |  |  |  |
| CCCCCCC(=O)N[C@H](CN)C(=O)N[C@H]1CCNC(=O)[C@H](CC(C)C)NC(=O)[C@H](CCN)NC(=O)[C@H](CCN)NC(=O)[C@H](CC(C)C)NC(=O)[C@@H](Cc2ccccc2)NC(=O)[C@H](CCN)NC1=O [compound 9190, nC6CO-D-Dap-cyc[L-Dab-L-Dab-D-Phe-L-Leu-L-Dab-L-Dab-L-Leu]] (Heptanoyl-[dDap][Dab][Dab][dF]L[Dab][Dab]L; lactam 2-C) | > 300 | 8 (≈ 8.23 µM) | 16 (≈ 16.5 µM) | >32 | 8 (≈ 8.23 µM) | 4 (≈ 4.11 µM) | 16 (≈ 16.5 µM) | 2 (≈ 2.06 µM) | 16 (≈ 16.5 µM) | >32 | >32 | >32 | 32 (≈ 32.9 µM) |  |  |  |  |  |
| CCCCCCCCC(=O)N[C@H](CN)C(=O)N[C@H]1CCNC(=O)[C@H](CC(C)C)NC(=O)[C@H](CCN)NC(=O)[C@H](CCN)NC(=O)[C@H](CC(C)C)NC(=O)[C@@H](Cc2ccccc2)NC(=O)[C@H](CCN)NC1=O [compound 9191, nC8CO-D-Dap-cyc[L-Dab-L-Dab-D-Phe-L-Leu-L-Dab-L-Dab-L-Leu]] (Nonanoyl-[dDap][Dab][Dab][dF]L[Dab][Dab]L; lactam 2-C) | > 300 | 4 (≈ 4 µM) | 8 (≈ 8 µM) | 32 (≈ 32 µM) | 2 (≈ 2 µM) | 2 (≈ 2 µM) | 8 (≈ 8 µM) | 4 (≈ 4 µM) | 8 (≈ 8 µM) | >32 | >32 | 16 (≈ 16 µM) | 8 (≈ 8 µM) |  |  |  |  |  |
| CCCCCCCCCC(=O)N[C@H](CN)C(=O)N[C@H]1CCNC(=O)[C@H](CC(C)C)NC(=O)[C@H](CCN)NC(=O)[C@H](CCN)NC(=O)[C@H](CC(C)C)NC(=O)[C@@H](Cc2ccccc2)NC(=O)[C@H](CCN)NC1=O [compound 9192, nC9CO-D-Dap-cyc[L-Dab-L-Dab-D-Phe-L-Leu-L-Dab-L-Dab-L-Leu]] (Decanoyl-[dDap][Dab][Dab][dF]L[Dab][Dab]L; lactam 2-C) | 224 | 2 (≈ 1.97 µM) | 8 (≈ 7.89 µM) | 8 (≈ 7.89 µM) | 2 (≈ 1.97 µM) | 4 (≈ 3.94 µM) | 8 (≈ 7.89 µM) | 4 (≈ 3.94 µM) | 8 (≈ 7.89 µM) | 4 (≈ 3.94 µM) | 32 (≈ 31.5 µM) | 8 (≈ 7.89 µM) | 8 (≈ 7.89 µM) |  |  |  |  |  |
| CCCCCCC[C@@H](O)CC(=O)N[C@H](CCN)C(=O)N[C@H]1CCNC(=O)[C@H](CC(C)C)NC(=O)[C@H](CCN)NC(=O)[C@H](CCN)NC(=O)[C@@H](Cc2ccccc2)NC(=O)[C@H](CC(C)C)NC(=O)[C@H](CCN)NC1=O [compound 9194, 3(R)-OH-nC9CO-D-Dab-cyc[L-Dab-L-Dab-L-Leu-D-Phe-L-Dab-L-Dab-L-Leu]] ({Decanoyl(3R-OH)}-[dDab][Dab][Dab]L[dF][Dab][Dab]L; lactam 2-C) | > 300 | 32 (≈ 30.6 µM) | >32 | 32 (≈ 30.6 µM) | >32 | >32 | >32 | 32 (≈ 30.6 µM) | >32 | >32 | >32 | >32 | >32 |  |  |  |  |  |
| CCCCCCC[C@@H](O)CC(=O)N[C@H](CCN)C(=O)N[C@H]1CCNC(=O)N(CC(C)C)NC(=O)[C@H](CCN)NC(=O)[C@H](CCN)NC(=O)[C@H](CC(C)C)NC(=O)[C@@H](Cc2ccccc2)NC(=O)[C@@H](CCN)NC1=O [compound 9416, 3(R)OH-nC9CO-D-Dab-cyc[L-Dab-L-Dab-D-Phe-L-Leu-L-Dab-L-Dab-(aza-Leu)]] | > 300 | 16 (≈ 15.3 µM) | 16 (≈ 15.3 µM) | 32 (≈ 30.6 µM) |  |  | 16 (≈ 15.3 µM) | 4 (≈ 3.83 µM) | 16 (≈ 15.3 µM) |  | >32 |  |  | >32 | >32 | >32 | >32 | >32 |
| CCCCCCC[C@@H](O)CC(=O)N[C@H](CCN)C(=O)NN1CCNC(=O)[C@H](CC(C)C)NC(=O)[C@H](CCN)NC(=O)[C@H](CCN)NC(=O)[C@H](CC(C)C)NC(=O)[C@@H](Cc2ccccc2)NC(=O)[C@H](CCN)NC1=O [compound 9417, 3(R)OH-nC9CO-D-Dab-cyc[(aza-Dab)-L-Dab-D-Phe-L-Leu-L-Dab-L-Dab-L-Leu]] ([Dab][dF]L[Dab][Dab]L; linker N-C via X10) | > 300 | >32 | >32 | 8 (≈ 7.65 µM) |  |  | >32 | 16 (≈ 15.3 µM) | >32 |  | >32 |  |  | >32 | >32 | >32 | >32 | >32 |
